Assay results reported in patent US20250313575A1, “MACROCYCLES AS LRRK2 INHIBITORS, PHARMACEUTICAL COMPOSITIONS, AND USES THEREOF” (Merck Sharp & Dohme LLC, priority 2022, published 2025).
Structures can show the parent of a compound that is named as a salt.

What follows are compounds tested against GST-tagged truncated human mutant G2019S LRRK2 (Homo sapiens (Human), UniProt Q5S007, G2019S) (assay: LRRK2 G2019S Km ATP LanthaScreen assay). Settings: G2019S LRRK2, 134 μM ATP (Km ATP), LRRKtide substrate.
Format: biochemical
Method in brief: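 Ten-point compound series (highest 9.99 μM in DMSO) preincubated 15 min with 1.25 nM GST-tagged truncated human LRRK2 G2019S, then 90 min reaction at ambient temperature with 134 μM ATP (Km) and fluorescein-labelled LRRKtide, pH 8.5. Phosphorylation read as 520/495 nm emission ratio via Tb-labelled antibody; IC50 from 4P logistic regression.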

GST-tagged truncated human mutant G2019S LRRK2, sequence (Q5S007 970-2527 G2019S): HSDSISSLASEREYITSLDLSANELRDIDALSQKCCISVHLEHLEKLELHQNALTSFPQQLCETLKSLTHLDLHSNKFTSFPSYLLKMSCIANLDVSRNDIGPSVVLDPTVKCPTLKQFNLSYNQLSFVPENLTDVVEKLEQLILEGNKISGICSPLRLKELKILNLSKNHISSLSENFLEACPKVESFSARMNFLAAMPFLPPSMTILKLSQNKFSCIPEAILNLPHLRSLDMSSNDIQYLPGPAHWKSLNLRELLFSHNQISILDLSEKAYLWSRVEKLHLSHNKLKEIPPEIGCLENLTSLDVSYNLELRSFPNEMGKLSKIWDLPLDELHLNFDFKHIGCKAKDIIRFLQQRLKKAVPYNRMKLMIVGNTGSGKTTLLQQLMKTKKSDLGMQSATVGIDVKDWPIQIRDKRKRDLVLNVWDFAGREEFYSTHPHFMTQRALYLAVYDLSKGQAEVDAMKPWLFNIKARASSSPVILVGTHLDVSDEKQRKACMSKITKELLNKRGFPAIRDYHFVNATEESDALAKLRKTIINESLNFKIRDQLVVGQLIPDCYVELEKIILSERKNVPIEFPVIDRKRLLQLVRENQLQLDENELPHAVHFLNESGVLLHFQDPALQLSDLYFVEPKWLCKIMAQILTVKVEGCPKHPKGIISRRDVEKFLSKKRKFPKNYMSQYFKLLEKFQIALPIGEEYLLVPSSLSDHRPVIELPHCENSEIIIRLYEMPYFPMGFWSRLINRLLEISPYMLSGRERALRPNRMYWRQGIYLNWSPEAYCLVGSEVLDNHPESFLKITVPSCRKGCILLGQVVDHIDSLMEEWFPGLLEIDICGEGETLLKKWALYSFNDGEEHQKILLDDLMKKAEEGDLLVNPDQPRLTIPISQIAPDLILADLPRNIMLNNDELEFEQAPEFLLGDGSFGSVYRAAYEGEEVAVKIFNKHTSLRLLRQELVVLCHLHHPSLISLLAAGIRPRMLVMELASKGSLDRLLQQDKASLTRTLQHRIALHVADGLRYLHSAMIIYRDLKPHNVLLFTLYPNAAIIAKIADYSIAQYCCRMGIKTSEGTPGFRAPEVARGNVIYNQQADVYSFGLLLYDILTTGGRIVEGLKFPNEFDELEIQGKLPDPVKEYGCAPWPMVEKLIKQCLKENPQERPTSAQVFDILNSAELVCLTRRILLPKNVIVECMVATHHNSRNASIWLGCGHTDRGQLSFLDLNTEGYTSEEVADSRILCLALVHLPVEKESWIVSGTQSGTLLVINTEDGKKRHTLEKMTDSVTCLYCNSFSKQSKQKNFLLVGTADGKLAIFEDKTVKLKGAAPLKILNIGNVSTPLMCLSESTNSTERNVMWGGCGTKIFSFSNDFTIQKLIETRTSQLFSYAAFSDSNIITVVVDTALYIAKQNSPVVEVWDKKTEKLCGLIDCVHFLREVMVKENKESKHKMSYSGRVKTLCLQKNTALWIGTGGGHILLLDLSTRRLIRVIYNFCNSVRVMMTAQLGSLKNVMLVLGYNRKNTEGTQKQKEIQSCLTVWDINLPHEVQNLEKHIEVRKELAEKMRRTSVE

Compound	LRRK2 pIC50
N#CC1CC1c1nn(C2CCC2)c2c1OC[C@@H]1COC[C@H]1Nc1nc(ncc1C(F)(F)F)N2 (single isomer, unassigned) [Ex-2.50, (1R,2R)- or (1S,2S)-2-((10aS,13aS)-3-cyclobutyl-8-(trifluoromethyl)-3,4,10a,11,13a,14-hexahydro-10H,13H-5,9-(azeno)furo[3,4-k]pyrazolo[4,3-b][1]oxa[4,6,10]triazacyclotridecin-1-yl)cyclopropane-1-carbonitrile]	9.77
(10aR,12aR)-8-chloro-3-methyl-1- (trifluoromethyl)-3,4,10,10a,11,12,12a,13- octahydro-5,9- (azeno)cyclobuta[k]pyrazolo[4,3- b][1]oxa[4,6,10]triazacyclotridecine [Ex-2.76]	9.47
Cc1nn(C2CCC2)c2c1OC[C@@H]1COCC[C@H]1Nc1nc(ncc1C(F)(F)F)N2 [Ex-2.34, (4aR,16aS)- or (4aS,16aR)-12-cyclobutyl-14-methyl-7-(trifluoromethyl)-3,4,4a,5,11,12,16,16a-octahydro-1H-6,10-(azeno)pyrano[4,3-k]pyrazolo[4,3-b][1]oxa[4,6,10]triazacyclotridecine]	8.00
CC(C)c1n[nH]c2c1Nc1ncc(C(F)(F)F)c(n1)N[C@@H]1CC[C@H]1CO2 [Ex-1.22, (10aR,12aR)-3-isopropyl-8-(trifluoromethyl)-1,4,10,10a,11,12,12a,13-octahydro-5,9-(azeno)cyclobuta[k]pyrazolo[3,4-b][1]oxa[4,6,10]triazacyclotridecine]	>10.09
O[C@@H]1COCC1n1nc(C2CC2)c2c1OC[C@H]1CC[C@@H]1Nc1nc(ncc1C(F)(F)F)N2 (single isomer, unassigned) [Ex-6.4, (3R,4S)-4-((10aR,12aR)- or (3R,4S)-4-((10aS,12aS)- or (3S,4R)-4-((10aR,12aR)- or (3S,4R)-4-((10aR,12aR)-3-cyclopropyl-8-(trifluoromethyl)-10,10a,11,12,12a,13-hexahydro-5,9-(azeno)cyclobuta[k]pyrazolo[3,4-b][1]oxa[4,6,10]triazacyclotridecin-1 (4H)-yl)tetrahydrofuran-3-ol]	>10.09
Cc1nn(C2CCC2)c2c1OC[C@@H]1COC[C@H]1Nc1cc(ncc1C(F)(F)F)N2 [Ex-13.1, (10aR,13aR)-3-Cyclobutyl-1-methyl-8-(trifluoromethyl)-3,4,10a,11,13a,14-hexahydro-10H,13H-5,9-(metheno)furo[3,4-k]pyrazolo[4,3-b][1]oxa[4,6,10]triazacyclotridecine, TFA]	>10.09
COC(=O)c1nn(C2CCC2)c2c1OC[C@@H]1COC[C@H]1Nc1nc(ncc1C(F)(F)F)N2 [Ex-5.6, methyl (10aS,13aS)-3-cyclobutyl-8-(trifluoromethyl)-3,4,10a,11,13a,14-hexahydro-10H,13H-5,9-(azeno)furo[3,4-k]pyrazolo[4,3-b][1]oxa[4,6,10]triazacyclotridecine-1-carboxylate]	9.80
FC(F)(F)c1cnc2nc1NC1CCC1COc1c(C3CCOC3)nn(C3CCC3)c1N2 [Ex-2.64, (10aR,12aR)-3-cyclobutyl-1-((R)-(10aR,12aR)-3-cyclobutyl-1-((S)-(10aS,12aS)-3-cyclobutyl-1-((R)-(10aS,12aS)-3-cyclobutyl-1-((S)-tetrahydrofuran-3-yl)-8-(trifluoromethyl)-3,4,10,10a,11,12,12a,13-octahydro-5,9-(azeno)cyclobuta[k]pyrazolo[4,3-b][1]oxa|4,6,10]triazacyclotridecine]	>10.09
Cc1nn(C)c2c1OC[C@H]1CCC(C1)Nc1nc(ncc1C(F)(F)F)N2 [Ex-2.88, (5^1R,5^3S)-1^1,1^3-dimethyl-3^5-(trifluoromethyl)-1^1H-7-oxa-2,4-diaza-3(2,4)-pyrimidina-1(5,4)-pyrazola-5(1,3)-cyclopentanacycloheptaphane]	7.64
COC1CCC1n1nc(C)c2c1Nc1ncc(C(F)(F)F)c(n1)NC1COCC1CO2 [Ex-2.39, (10aS,13aS)-3-((1R,2R)-(10aS,13aS)-3-((1S,2R)-(10aS,13aS)-3-((1R,2S)-(10aS,13aS)-3-((1R,2R)-(10aR,13aR)-3-((1S,2R)-(10aR,13aR)-3-((1R,2S)-2-methoxycyclobutyl)-1-methyl-8-(trifluoromethyl)-3,4,10a,11,13a,14-hexahydro-10H,13H-5,9-(azeno)furo[3,4-k]pyrazolo[4,3-b][1]oxa[4,6,10]triazacyclotridecine]	6.32
Cc1nn(C2CCC2)c2c1OC[C@@H]1CC[C@H]1Nc1nc(ncc1C(F)(F)F)N2 [Ex-2.3, (10aR,12aR)- or (10aS,12aS)-3-Cyclobutyl-1-methyl-8-(trifluoromethyl)-3,4,10,10a,11,12,12a,13-octahydro-5,9-(azeno)cyclobuta[k]pyrazolo[4,3-b][1]oxa[4,6,10]triazacyclotridecine]	9.12
CC(C)c1nn(C(C)(C)CO)c2c1N(C)c1ncc(C(F)(F)F)c(n1)N[C@H](C)CCO2 [Ex-9.1, (R)-2-(3-isopropyl-4,11-dimethyl-8-(trifluoromethyl)-10,11,12,13-tetrahydro-5,9-(azeno)pyrazolo[3,4-b][1]oxa[4,6,10]triazacyclotridecin-1 (4H)-yl)-2-methylpropan-1-ol]	6.11
Cc1cnc2c(c1)Nc1ncc(C(F)(F)F)c(n1)N[C@@H]1COC[C@H]1CO2 [Ex-15.3, (11aS,14aS)-3-methyl-9-(trifluoromethyl)-11a,12,14a,15-tetrahydro-5H,11H,14H6,10-(azeno)furo[3,4-k]pyrido[2,3-b][1]oxa[4,6,10]triazacyclotridecine]	9.15
